Assay results reported in publication PMC10644720 (Frontiers in Pharmacology, 2023).
Read-outs that look alike come from different tables or passages of the source.

Legend:
human washed platelets [1] = assay: Platelet ROS release assay (DCFH-DA); format: cell-based; settings: for IC50: Homo sapiens, Platelet; for effect on platelet ROS release: luteolin 25 μM, BAY61-3606 63 nM
Method: The assay was performed as previously reported with minor modifications ([Arthur et al., 2012]; [Ye et al., 2020]). Briefly, WPs (500 × 10^9/L) were labeled with 5 μM Fluo-3AM (Cat No. IF0150; Solarbio) or 10 μM DCFH-DA (Cat No. D6883; Sigma, St. Louis, MO, United States) at 37°C for 30 min protected from light. […] In addition, 1 mM CaCl2 and collagen or convulxin were added to start the reaction. […] A ROS probe via a fluorescent enzyme marker was added. O2 ^− and H2O2 were measured using 2 μM Amplex Red (Cat No. ST010; Beyotime Institute of Biotechnology, Shanghai, China) or 2 μM Dihydroethidium (DHE, Cat No. S0063; Beyotime Institute of Biotechnology, Shanghai, China). O2 ^− and H2O2 were analyzed using a Fluoroskan Ascent fluorometer (Thermo Fisher, Waltham, Massachusetts, United States).

integrin αIIbβ3 = assay: PAC-1 expression (integrin αIIbβ3 activation) by flow cytometry; format: cell-based, human; settings: collagen- and convulxin-induced
Method: Platelet membrane protein expression experiments were performed as previously reported, with slight modifications ([Babur et al., 2020]). WPs were added with 10 μM indomethacin to prevent platelet aggregation. After incubation, the WPs were activated by adding 1 mM calcium chloride and agonists to platelets at 37°C. After 30 min, 10 μL of WPs was taken, and the reaction was terminated by adding 90 μL Tyrode’s buffer and 10 mM EDTA. PerCP-coupled anti-CD61 antibody (1:50; Cat No. 336410; Biolegend, San Diego, CA, United States), Alexa Fluor® 647 labeled PAC-1 (1:50; Cat No. 362806; BioLegend), and FITC-coupled anti-CD62p antibody (1:50; Cat No. 555523; BD Biosciences, San Diego, CA, United States) were incubated with platelets for 30 min at 37°C in the dark. The platelet surface fluorescence intensity was analyzed using a FacsCanto II flow cytometer (BD Biosciences, San Diego, CA, United States) to analyze the expression of platelet surface membrane proteins. Cell membrane protein expression data were analyzed using FlowJo software V10.

human washed platelets [2] = assay: Platelet intracellular Ca2+ release assay (Fluo-3AM); format: cell-based; settings: collagen (10 μg/mL)- and convulxin (5 ng/mL)-induced
Method: The assay was performed as previously reported with minor modifications ([Arthur et al., 2012]; [Ye et al., 2020]). Briefly, WPs (500 × 10^9/L) were labeled with 5 μM Fluo-3AM (Cat No. IF0150; Solarbio) or 10 μM DCFH-DA (Cat No. D6883; Sigma, St. Louis, MO, United States) at 37°C for 30 min protected from light. […] In addition, 1 mM CaCl2 and collagen or convulxin were added to start the reaction. Ca^2+ release and ROS production were analyzed using a Fluoroskan Ascent fluorometer (Thermo Fisher, Waltham, Massachusetts, US) at excitation (ex)/emission (em) = 490/530 nm, and the curves were plotted in real-time.

human washed platelets [3] = assay: Clot retraction experiment; format: cell-based; settings: luteolin 100 μM; 0.1 U/mL thrombin
Method: Clot retraction experiments were completed using the previously reported method ([Zhang et al., 2015]). […] Then, 200 μL of WPs were placed in a siliconized glass tube with 1 mM CaCl2, 0.1 U/mL thrombin, and 10 µL PPP, mixed well, and left at 37°C. Pictures were taken every 5 min. The clot size was calculated using ImageJ software.

pulmonary thrombosis = assay: Collagen-epinephrine-induced acute pulmonary embolism model and plasma oxidative markers; format: in vivo, C57BL/6 mice; settings: luteolin 35 μM/kg
Method: The acute pulmonary embolism model in mice was similar to the previously reported literature with slight modifications ([Pan et al., 2021]). […] after a retro-orbital sinus injection of collagen (100 μg/kg)-epinephrine (300 μg/kg), the mice were anesthetized by pentobarbital (45 mg/kg, i.p.). Whole blood obtained from the eyes was anticoagulated with EDTA·2Na. Whole blood was centrifuged at 3,000 rpm for 10 min to get plasma. Measurement of MDA and SOD in plasma followed the manufacturer’s protocols. Mice were sacrificed by cervical dislocation. The lung tissue was taken and fixed in 4% paraformaldehyde overnight. Lung and sternum tissues were fixed in 4% paraformaldehyde, embedded in paraffin, and sectioned into 5-μm sections. After dewaxing and washing, the slices were incubated overnight at 4°C for immunostaining with anti-mouse CD41 antibody (Cat No. GTX113758, GeneTex Inc., Irvine, CA, United States) 0.63 μg/mL or with anti-mouse CD42b antibody (Cat No. 12860-1-AP; Proteintech Group Inc., Chicago, IL, United States) 1 μg/mL or an equivalent concentration of polyclonal non-immune IgG (Cat No. GTX213110-01; GeneTex) as control. The sections were washed three times and incubated for 50 min at room temperature with secondary antibodies. The nuclei were counterstained using hematoxylin. The tissues were observed using 3,3′-Diaminobenzidine tetrahydrochloride.

[4] = Coagulation function in mice; format: in vivo, C57BL/6 mice; settings: 30 min after administration
Method: Then, 30 min after administration, blood was removed from the eyes and anticoagulated with 3.8% sodium citrate. The plasma was obtained by centrifugation at 3,000 rpm for 10 min at room temperature, and coagulation-related indexes were measured using an STA Compact Max (Diagnostica Stago, Inc. Asnières-sur-Seine, France).

human platelets = settings: cited from earlier work
[5] = set-up: method as in Aziz et al., 2018; settings: intraperitoneal injection; ref Aziz et al., 2018; cited from earlier work
[6] = tested on: thrombosis and infarct area; set-up: method as in Liu et al., 2022; settings: rats; gavage for 7 days at 20 mg/kg/day; ref Liu et al., 2022; cited from earlier work
carotid thrombosis = tested on: carotid thrombosis; set-up: method as in Choi et al. (2015); settings: mice; ref Choi et al. (2015); cited from earlier work

SMILES: O=c1cc(-c2ccc(O)c(O)c2)oc2cc(O)cc(O)c12 [Luteolin]
- IC50 (human washed platelets [1]; read-out: IC50, inhibition of ROS release, convulxin (5 ng/mL)-induced): 3.51 µM
- IC50 (human washed platelets [1]; collagen (10 μg/mL)-induced, read-out: IC50, inhibition of ROS release): 2.06 µM
- effect on platelet ROS release (human washed platelets [1]; collagen (10 μg/mL)-induced): decreasing levels
- effect on platelet ROS release (human washed platelets [1]; convulxin (5 ng/mL)-induced): decreased
- PAC-1 expression (integrin αIIbβ3 inside-out activation) (integrin αIIbβ3): dose-dependently inhibited
- platelet calcium release (human washed platelets [2]): dose-dependently inhibited
- thrombin-induced clot retraction (human washed platelets [3]): inhibited
- area and size of thrombus formation in lungs (pulmonary thrombosis; 30 min before collagen-epinephrine): significantly attenuated
- MDA levels in plasma (pulmonary thrombosis; mice with pulmonary embolism): significantly decreased
- SOD activity in plasma (pulmonary thrombosis; mice with pulmonary embolism): increased
- activated partial thromboplastin time (APTT) [4]: no significant effects
- plasma concentration of fibrinogen [4]: no significant effects
- prothrombin time (PT) [4]: no significant effects
- thrombin time (TT) [4]: no significant effects
- IC50 (human platelets; 2 μM U46619, ref Guerrero et al., 2005, read-out: IC50, inhibition of U46619-induced platelet aggregation): 47 ± 13.3 µM
- ADP induced platelet aggregation (human platelets; 25–100 μM luteolin, 1 h incubation, ref Lu et al., 2021): inhibited
- collagen, U46619, and ADP-induced activation in human platelets (human platelets; ref Guerrero et al., 2005, Guerrero et al., 2007, Lu et al., 2021): significantly inhibits
- LD50 [5]: 180 mg/kg
- thrombosis and infarct area [6]: significantly reduce
- FeCl3-induced carotid thrombosis (carotid thrombosis): significantly inhibits
